From the supplement of paper PMC4862054

Legend:
Test in all cases: normalised response (% of control), CellTox Green; higher = less cell death (100 = DMSO, 0 = benzethonium chloride kill control)
Conditions in all cases: incubation time: 72 h
[1] = tested on: CAL-120
Outline: (§1)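 Every value is a normalised signal taken at one concentration of a dilution series. Compound was placed in 384-well plates at 5 concentrations in 10-fold steps over a compound-specific 10,000-fold range, and 20 µl of breast cancer cell suspension was seeded onto it. After 72 h, CellTox Green fluorescence (485/520 nm) was measured first and CellTiter-Glo luminescence second, following 10 min at room temperature. Each plate was scaled to 0.1 % DMSO (100) and a positive kill control (0).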

[2] = tested on: CAL-148
Outline: as §1

[3] = tested on: MDA-MB-453
Outline: as §1

[4] = tested on: MDA-MB-468
Outline: as §1

[5] = tested on: Hs578T
Outline: as §1

SMILES	normalised response [1]	normalised response [2]	normalised response [3]	normalised response [4]	normalised response [5]
CN1CCC(COc2cnc(-c3cccc(Cn4nc(-c5cccc(C#N)c5)ccc4=O)c3)nc2)CC1 (1000 nM)	95.6%	103%	105%	140%	
CN(C)C/C=C/C(=O)Nc1cc2c(Nc3ccc(F)c(Cl)c3)ncnc2cc1O[C@H]1CCOC1 [Afatinib] (1000 nM)	94.1%	94.1%	97.1%	110%	
CN1CC[C@H](c2c(O)cc(O)c3c(=O)cc(-c4ccccc4Cl)oc23)[C@H](O)C1 [Alvocidib] (1000 nM)	85.3%	-101%	97.7%	109%	65.7%
CN1CC[C@H](c2c(O)cc(O)c3c(=O)cc(-c4ccccc4Cl)oc23)[C@H](O)C1 [Alvocidib] (10000 nM)	81.8%	92%	102%	52.6%	12.8%
Nc1nc(Cl)nc2c1ncn2[C@H]1C[C@H](O)[C@@H](CO)O1 [Cladribine] (100 nM)	101%	95.7%	108%	72.2%	98%
Nc1nc(Cl)nc2c1ncn2[C@H]1C[C@H](O)[C@@H](CO)O1 [Cladribine] (1000 nM)	101%	73.7%	101%	50.6%	111%
Nc1ccn([C@@H]2O[C@H](CO)[C@@H](O)[C@@H]2O)c(=O)n1 [Cytarabine] (1000 nM)	106%	69.9%	112%	159%	85.2%
Nc1ccn([C@@H]2O[C@H](CO)[C@@H](O)[C@@H]2O)c(=O)n1 [Cytarabine] (10000 nM)	108%	69.2%	104%	156%	134%
Cc1c2oc3c(C)ccc(C(=O)N[C@@H]4C(=O)N[C@H](C(C)C)C(=O)N5CCC[C@H]5C(=O)N(C)CC(=O)N(C)[C@@H](C(C)C)C(=O)O[C@@H]4C)c3nc-2c(C(=O)N[C@@H]2C(=O)N[C@H](C(C)C)C(=O)N3CCC[C@H]3C(=O)N(C)CC(=O)N(C)[C@@H](C(C)C)C(=O)O[C@@H]2C)c(N)c1=O [Dactinomycin] (100 nM)	85.4%	23.9%	98%	56.9%	26.1%
Cc1c2oc3c(C)ccc(C(=O)N[C@@H]4C(=O)N[C@H](C(C)C)C(=O)N5CCC[C@H]5C(=O)N(C)CC(=O)N(C)[C@@H](C(C)C)C(=O)O[C@@H]4C)c3nc-2c(C(=O)N[C@@H]2C(=O)N[C@H](C(C)C)C(=O)N3CCC[C@H]3C(=O)N(C)CC(=O)N(C)[C@@H](C(C)C)C(=O)O[C@@H]2C)c(N)c1=O [Dactinomycin] (1000 nM)	101%	79.9%	104%	52.8%	40.6%
COc1cccc2c1C(=O)c1c(O)c3c(c(O)c1C2=O)C[C@@](O)(C(=O)CO)C[C@@H]3O[C@H]1C[C@H](N)[C@H](O)[C@H](C)O1 [Doxorubicin] (100 nM)	100%	81.4%	109%	151%	103%
COc1cccc2c1C(=O)c1c(O)c3c(c(O)c1C2=O)C[C@@](O)(C(=O)CO)C[C@@H]3O[C@H]1C[C@H](N)[C@H](O)[C@H](C)O1 [Doxorubicin] (1000 nM)	92.7%	66.4%	130%	363%	159%
Cc1ccc(F)c(NC(=O)Nc2ccc(-c3cccc4[nH]nc(N)c34)cc2)c1 [Linifanib] (100 nM)	101%	108%	108%	66.5%	66.5%
Cc1ccc(F)c(NC(=O)Nc2ccc(-c3cccc4[nH]nc(N)c34)cc2)c1 [Linifanib] (1000 nM)	97.9%	95.7%	102%	86.9%	105%
S=c1[nH]cnc2nc[nH]c12 [Mercaptopurine] (1000 nM)	104%	102%	101%	155%	104%
S=c1[nH]cnc2nc[nH]c12 [Mercaptopurine] (10000 nM)	101%	96.1%	91.5%	185%	121%
Clc1ccc(C(c2ccccc2Cl)C(Cl)Cl)cc1 (stereo not given) [Mitotane] (1000 nM)	98.1%	104%	100%	140%	
Clc1ccc(C(c2ccccc2Cl)C(Cl)Cl)cc1 (stereo not given) [Mitotane] (10000 nM)	95.6%	98.1%	104%	80.3%	105%

SMILES	normalised response [1]	normalised response [2]	normalised response [3]	normalised response [4]	normalised response [5]
COc1cccc2cc(-c3nc([C@H]4CC[C@H](C(=O)O)CC4)n4ncnc(N)c34)[nH]c12 [OSI-027] (1000 nM)	97.3%	107%	105%	119%	106%
COc1cccc2cc(-c3nc([C@H]4CC[C@H](C(=O)O)CC4)n4ncnc(N)c34)[nH]c12 [OSI-027] (10000 nM)	96.9%	72.5%	103%	86%	130%
OC[C@H]1O[C@@H](n2cnc3c2N=CNC[C@H]3O)C[C@@H]1O [Pentostatin] (1000 nM)	103%	95.5%	107%	100%	97.8%
OC[C@H]1O[C@@H](n2cnc3c2N=CNC[C@H]3O)C[C@@H]1O [Pentostatin] (10000 nM)	104%	102%	104%	112%	103%
N#CC[C@H](C1CCCC1)n1cc(-c2ncnc3[nH]ccc23)cn1 [Ruxolitinib] (1000 nM)	96.5%	104%	102%	119%	83.8%
N#CC[C@H](C1CCCC1)n1cc(-c2ncnc3[nH]ccc23)cn1 [Ruxolitinib] (10000 nM)	98.7%	95.1%	98.4%	149%	118%
C=CC[C@@H]1/C=C(\C)C[C@H](C)C[C@H](OC)[C@H]2O[C@@](O)(C(=O)C(=O)N3CCCC[C@H]3C(=O)O[C@H](/C(C)=C/[C@@H]3CC[C@@H](O)[C@H](OC)C3)[C@H](C)[C@@H](O)CC1=O)[C@H](C)C[C@@H]2OC [Tacrolimus] (1000 nM)	99.5%	104%	106%	130%	
C=CC[C@@H]1/C=C(\C)C[C@H](C)C[C@H](OC)[C@H]2O[C@@](O)(C(=O)C(=O)N3CCCC[C@H]3C(=O)O[C@H](/C(C)=C/[C@@H]3CC[C@@H](O)[C@H](OC)C3)[C@H](C)[C@@H](O)CC1=O)[C@H](C)C[C@@H]2OC [Tacrolimus] (10000 nM)	97.6%	95.8%	100%	52.5%	112%
C=CCNC1=C2C[C@@H](C)C[C@H](OC)[C@H](O)[C@@H](C)/C=C(\C)[C@H](OC(N)=O)[C@@H](OC)/C=C\C=C(/C)C(=O)NC(=CC1=O)C2=O [Tanespimycin] (1000 nM)	94.5%	28.2%	93.3%	121%	98.9%
C=CCNC1=C2C[C@@H](C)C[C@H](OC)[C@H](O)[C@@H](C)/C=C(\C)[C@H](OC(N)=O)[C@@H](OC)/C=C\C=C(/C)C(=O)NC(=CC1=O)C2=O [Tanespimycin] (10000 nM)	84.2%	39.8%	87.4%	100%	61.2%
CO[C@H]1C[C@@H]2CC[C@@H](C)[C@@](O)(O2)C(=O)C(=O)N2CCCC[C@H]2C(=O)O[C@H]([C@H](C)C[C@@H]2CC[C@@H](OC(=O)C(C)(CO)CO)[C@H](OC)C2)CC(=O)[C@H](C)/C=C(\C)[C@@H](O)[C@@H](OC)C(=O)[C@H](C)C[C@H](C)/C=C/C=C/C=C/1C [Temsirolimus] (100 nM)	102%	87.2%	107%	149%	-18.9%
C[C@]1(c2nc3c(C(N)=O)cccc3[nH]2)CCCN1 [Veliparib] (1000 nM)	102%	105%	106%	139%	91.6%
C[C@]1(c2nc3c(C(N)=O)cccc3[nH]2)CCCN1 [Veliparib] (10000 nM)	98.2%		95.4%	125%	109%
CC[C@]1(O)C[C@@H]2CN(CCc3c([nH]c4ccccc34)[C@@](C(=O)OC)(c3cc4c(cc3OC)N(C)[C@H]3[C@@](O)(C(=O)OC)[C@H](OC(C)=O)[C@]5(CC)C=CCN6CC[C@]43[C@@H]65)C2)C1 [Vinblastine] (100 nM)	88.2%	75.2%	103%	19.1%	-12.8%
CC[C@]1(O)C[C@@H]2CN(CCc3c([nH]c4ccccc34)[C@@](C(=O)OC)(c3cc4c(cc3OC)N(C)[C@H]3[C@@](O)(C(=O)OC)[C@H](OC(C)=O)[C@]5(CC)C=CCN6CC[C@]43[C@@H]65)C2)C1 [Vinblastine] (1000 nM)	89.8%	89.4%	96.5%	70.2%	-39.7%
CS(=O)(=O)c1ccc(C(=O)Nc2ccc(Cl)c(-c3ccccn3)c2)c(Cl)c1 [Vismodegib] (1000 nM)	95%	104%	99.7%	149%	100%
CS(=O)(=O)c1ccc(C(=O)Nc2ccc(Cl)c(-c3ccccn3)c2)c(Cl)c1 [Vismodegib] (10000 nM)	100%	105%	80.9%	226%	82.8%
